Laboratory results taken from publication PMC9545763, “Therapeutic potential of deuterium‐stabilized (R)‐pioglitazone—PXL065—for X‐linked adrenoleukodystrophy” (Journal of Inherited Metabolic Disease, 2022).

Molecular target: T1, ACSL4 (long-chain acyl-CoA synthetase 4) (Rattus norvegicus, UniProt O35547)
T1 construct: purified recombinant rat FLAG-ACSL4
Test: ACSL enzyme activity assay with […] palmitate, scintillation counting
Type: biochemical

T1 sequence (O35547 whole entry): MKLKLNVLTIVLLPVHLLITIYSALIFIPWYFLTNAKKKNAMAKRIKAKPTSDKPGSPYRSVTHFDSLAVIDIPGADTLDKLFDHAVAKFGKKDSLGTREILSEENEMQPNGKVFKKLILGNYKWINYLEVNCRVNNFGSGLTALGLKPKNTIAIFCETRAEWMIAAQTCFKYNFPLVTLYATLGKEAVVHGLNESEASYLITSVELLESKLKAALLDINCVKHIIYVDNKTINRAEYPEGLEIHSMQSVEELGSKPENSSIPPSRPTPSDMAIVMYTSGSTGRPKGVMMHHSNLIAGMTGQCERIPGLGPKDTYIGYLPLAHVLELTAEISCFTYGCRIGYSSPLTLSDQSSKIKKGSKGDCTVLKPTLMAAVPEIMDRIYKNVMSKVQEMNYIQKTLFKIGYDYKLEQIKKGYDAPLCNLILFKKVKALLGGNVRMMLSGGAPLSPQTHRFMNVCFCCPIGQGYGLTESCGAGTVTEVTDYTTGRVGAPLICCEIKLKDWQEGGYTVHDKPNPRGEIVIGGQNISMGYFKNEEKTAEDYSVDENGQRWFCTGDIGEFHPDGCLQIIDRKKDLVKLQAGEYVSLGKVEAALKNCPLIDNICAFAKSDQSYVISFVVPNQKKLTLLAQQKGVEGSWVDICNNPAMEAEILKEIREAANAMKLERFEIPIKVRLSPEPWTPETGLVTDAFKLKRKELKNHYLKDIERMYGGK

`CCc1ccc(CCOc2ccc(CC3SC(=O)NC3=O)cc2)nc1` (racemic) [pioglitazone] was tested, and the IC50 was 2080 nM.

`CCc1ccc(CCOc2ccc(C[C@H]3SC(=O)NC3=O)cc2)nc1` [PXL065] was tested, and the IC50 was 2120 nM.
